Series [1] is described as follows: Assay for ABTS+ radical scavenging. To be noted: 100 μM. The protocol:
The ABTS^+-scavenging efficacy of compounds 1–15 was determined by oxidizing ABTS with K2S2O8 to prepare ABTS^+. The prepared ABTS^+ solution was mixed with the test samples (1–15 and Trolox, a positive control) and the radical-scavenging efficacy of the test samples was explored by measuring the decrease in optical density at 732 nm. All test samples were tested at 100 μM.
To acquire ABTS^+ radicals, ABTS (14 mM in 20 mL H2O) was mixed with K2S2O8 (4.9 mM in 20 mL H2O), an oxidant agent, and stored at 22 °C in a place without light for 15 h. The absorbance of the prepared ABTS^+ radical solution was adjusted to 0.70 ± 0.01 at 732 nm by adding methanol. Test samples (Trolox [positive control] and 1–15) were dissolved in a co-solvent (DMSO:EtOH = 1:10 [v/v]). The diluted ABTS^+ radical solution (90 μL) was added to the test sample solution (10 μL) in each well of a 96-well plate and held at 22 °C in the dark for 2 min. The optical density of each well was recorded at 732 nm every 1 min for 10 min using an ELISA reader. The final concentration of test samples was 100 μM. %Radical-scavenging activity was determined using the formula 100 × [(Abscon − Abssam)/Abscon], where Abscon and Abssam represent the optical densities of the control and the samples, respectively.

Series [2] can be described thus: Assay for DPPH radical scavenging. As to conditions: 500 μM; 30 min in the dark. The method, then:
To evaluate the DPPH radical-scavenging efficacy of 1–15, a DPPH methanol solution was mixed with compounds 1–15, and the mixture was left in the dark. After 30 min, the radical-scavenging efficacy of each compound was determined by measuring the optical density at 517 nm. Vitamin C (L-ascorbic acid) was used for comparing radical-scavenging activity, and all test samples were treated at 500 μM.
DPPH was dissolved in methanol to prepare a 0.2 mM solution, and test samples (vitamin C [L-ascorbic acid, LA; positive control] and 1–15) were dissolved in DMSO to prepare a 5 mM solution. The DPPH methanolic solution (180 μL) was added to the test sample DMSO solution (20 μL) in each well of a 96-well microplate and kept in a place without light for 30 min at 22 °C. Using a VersaMax™ ELISA reader, the optical density of each well was recorded at 517 nm to determine DPPH radical-scavenging activity.
(Loss of DPPH colour is used to gauge radical scavenging.)

The nature of series [3]: Assay for ROS scavenging (SIN-1/DCFH). To be noted: 40 μM sample; 10 μM SIN-1. The protocol: To assess the ability of compounds 1–15 to scavenge ROS, 2′,7′-dichlorodihydrofluorescein (DCFH) solution, which was obtained from hydrolysis of DCFH diacetate by esterase, was mixed with 3-morpholinosydnonimine (SIN-1), a ROS generator, and test samples (1–15 and Trolox, a positive material). ROS produces 2′,7′-dichlorofluorescein (DCF), a fluorescent material, by oxidizing DCFH. The ROS-scavenging activity of the samples was determined by measuring the fluorescence of DCF. The results were obtained at 10 μM SIN-1 and 40 μM sample.
To obtain 2′,7′-dichlorodihydrofluorescein (DCFH) solution, esterase (3 units/2 mL) was mixed with 2.5 mM DCFH diacetate and 50 mM phosphate buffer (pH 7.4). After incubating the mixture at 22 °C for 25 min, it was kept in the dark. 3-Morpholinosydnonimine (SIN-1) and compounds 1–15 were dissolved in phosphate buffer and DMSO, respectively. SIN-1 (10 µL) and compound (10 µL) were added to each well of a 96-well black plate containing phosphate buffer (180 µL), and the concentrations of SIN-1 and compound were 10 and 40 μM, respectively. Trolox (40 μM) was used as a positive material. […] To measure the fluorescence of 2′,7′-dichlorofluorescein at 535 nm, a microplate reader (Berthold Advances GmbH &Co., Bad Wildbad, Germany) was utilized with an excitation wavelength of 485 nm. […]

The subject of series [4] is tyrosinase activity of zebrafish larvae. As to the kind of experiment: Tyrosinase activity in zebrafish larvae. The series is classed as in vivo, Danio rerio. To be noted: 76 hpf. The protocol: To quantify the tyrosinase activity in zebrafish larvae, 60 zebrafish larvae at 76 hpf were divided into three Eppendorf tubes and centrifuged at 10,000× g for 10 min at 4 °C. After removing the supernatant, the residue was lysed using radioimmunoprecipitation assay buffer (100 μL) (Biosedang, Gyeonggi-do, Republic of Korea) and homogenized for 5 min using a sonicator. The lysate was centrifuged at 10,000× g for 10 min at 4 °C. The supernatants were transferred to a new Eppendorf tube and the protein content was quantified using a bicinchoninic acid protein assay kit (Thermo Fisher Scientific, Waltham, MA, USA). An aliquot (100 μL) of 1 mM L-DOPA was added to the new Eppendorf tube containing a total of 300 μg of protein in 100 μL of protein lysate. Eppendorf tubes were incubated for 1 h at 37 °C and then transferred to each well of a 96-well plate. The absorbance of each well was measured at 475 nm to determine the tyrosinase activity of zebrafish larvae.

Another series deals with zebrafish larvae. Put plainly: Zebrafish depigmentation assay using zebrafish embryos. The series is classed as in vivo, Danio rerio. Set-up: pigmentation of zebrafish larvae: dose or concentration left out as unconfirmed. To be noted: treated at 28 hpf, read at 76 hpf.
In a further series the target is mushroom tyrosinase (Agaricus bisporus, UniProt C7FF04). As to the kind of experiment: Kinetic experiment using mushroom tyrosinase (Lineweaver–Burk and Dixon plots). The series is classed as biochemical. The protocol:
The plots for inhibitors 10 and 15 were obtained by measuring the initial rate of dopachrome production in the presence of various L-DOPA substrate concentrations (Figure 3A,C). For the kinetic experiments, compounds 10 and 15 were used at 0, 1, 2, and 4 μM and at 0, 4, 8, and 16 μM, respectively.
Ki, known as the dissociation constant or inhibition constant, describes the binding affinity between the enzyme and inhibitor. […] Dixon plots were acquired by plotting the inverse of the initial dopachrome formation rate against the inhibitor concentration (Figure 3B,D). Each Dixon plot produces four lines that merge at one point in the second quadrant. The absolute value of the x co-ordinate of the merge point represents the Ki value. […] The lower the Ki value, the stronger the binding affinity. Thus, compound 10 bound more strongly to the tyrosinase active site than compound 15.
The identification of the tyrosinase inhibition mechanism was carried out by kinetic studies using mushroom tyrosinase. Test samples (10 μL; compounds 10 and 15) were mixed with a mushroom tyrosinase aqueous solution (20 μL; 100 units/mL) and a substrate solution (170 μL; substrate [L-DOPA] and 17.2 mM sodium phosphate pH 6.5 buffer) in each well of 96-well microplate. To obtain Lineweaver–Burk plots for kinetic analysis, L-DOPA and test samples were used at various concentrations: 0, 1, 2, and 4 μM for 10; 0, 4, 8, and 16 μM for 15; and 1, 2, 4, 8, and 16 mM for L-DOPA. During a 30 min incubation period, the initial dopachrome formation rate was calculated by measuring the optical density at 475 nm at 5 min intervals using an ELISA reader. Lineweaver–Burk plots were prepared by plotting the inverse of the substrate concentration against the inverse of the initial dopachrome formation rate in the presence of four different concentrations of compounds 10 and 15.

For series [5], the system named is B16F10 cells. As to the kind of experiment: Cell viability on B16F10 cells (EZ-Cytox). Type of series: cell-based. To be noted: 72 h. The method, then: Therefore, we investigated whether these compounds exert tyrosinase inhibitory activity in B16F10 mammalian cells. We examined the effects of these compounds on B16F10 cell viability. Cell viability was assessed for 72 h at five concentrations (1, 2, 5, 10, and 20 μM) of compounds 10 and 15.
The viability of B16F10 cells in the presence of compounds 10 and 15 was assayed. A 96-well microplate containing 1 × 10^3 B16F10 cells per well was incubated at 37 °C in a humid environment containing 5% CO2 for 24 h. Test samples (10 and 15) were added to each well at concentrations of 0, 1, 2, 5, 10, and 20 μM and incubated for 72 h. Each well was exposed to a 10 μL EZ-Cytox solution (EZ-500®, DoGenBio, Seoul, Republic of Korea) and incubated for 2 h. To determine cell viability, well optical density was measured at 450 nm using an ELISA reader.

Series [6] relates to B16F10 cells. As to the kind of experiment: In situ cellular tyrosinase activity assay (L-DOPA staining). Type of series: cell-based. To be noted: 20 μM; α-MSH + IBMX; 72 h, then L-DOPA 2 h. The method, then: The effect of 10 on cellular tyrosinase activity was investigated in situ using L-DOPA and B16F10 cells. This experimental method allows for the direct observation of cellular melanin production. […] After 72 h of incubation, the cells were treated with L-DOPA for 2 h to induce melanin production.
A 24-well plate containing 1 × 10^3 B16F10 cells per well was incubated at 37 °C for 24 h. […] After incubation for 72 h, the cells were fixed for 50 min using paraformaldehyde (4%), rinsed twice with PBS, and permeabilized for 2 min using Triton X-100 (0.1%). The cells were washed with PBS and 500 μL of 2 mM L-DOPA solution was added. After the cells were incubated at 37 °C for 2 h, stained images were obtained using a camera connected to a microscope (Motic, Hong Kong, China).

The test system of series [7] is B16F10 cellular tyrosinase. Put plainly: Cellular tyrosinase activity assay in B16F10 cells. The series is classed as cell-based. As to conditions: 20 μM; α-MSH + IBMX; 72 h; stimulators alone 3.9-fold vs untreated control. The protocol:
We analyzed the effect of 10 on B16F10 cellular tyrosinase activity to determine whether the ability of 10 inhibiting melanogenesis results from its ability to inhibit cellular tyrosinase activity.
A 6-well microplate containing 5 × 10^3 B16F10 cells per well was incubated at 37 °C for 24 h. Compound 10 was added to each well at 5, 10, and 20 μM and incubated for 1 h, and then stimulators (1 μM α-MSH and 200 μM IBMX) were added to each well before 72 h incubation.
To measure the cellular tyrosinase activity, the cells incubated for 72 h were washed 2 times with PBS, exposed to a 100 μL lysis buffer solution containing 5 μL 2 mM phenylmethylsulfonyl fluoride, 5 μL 20% Triton X-100, and 90 μL 50 mM phosphate buffer (pH 6.5), and cultivated for 30 min at −80 °C. After the lysates were centrifuged at 4 °C for 10 min at 10,000× g, an aliquot (80 μL) of the supernatants was added to each well of a 96-well microplate containing 20 μL of 10 mM L-DOPA. Data for the optical density at 475 nm were obtained every 1 min for 10 min at 37 °C using an ELISA reader to determine cellular tyrosinase activity.

Series [8] concerns B16F10 cells. As to the kind of experiment: Melanin content assay in B16F10 cells. The series is classed as cell-based. To be noted: 20 μM; α-MSH + IBMX; 72 h; stimulators alone 3.9-fold. The method, then: After 72 h, the effect of compound 10 on melanin biosynthesis was determined. A 6-well microplate containing 5 × 10^3 B16F10 cells per well was incubated at 37 °C for 24 h. Compound 10 was added to each well at 5, 10, and 20 μM and incubated for 1 h, and then stimulators (1 μM α-MSH and 200 μM IBMX) were added to each well before 72 h incubation. […] For the melanin content quantification, the cells were lysed at 60 °C for 1 h in 100 μL 1N-NaOH solution containing 10% DMSO after washing 2 times with phosphate-buffered saline (PBS). The cell lysates were transferred to a 96-well microplate and the optical density was measured at 405 nm using an ELISA reader to calculate the melanin content in each well.

mushroom tyrosinase, sequence (C7FF04 1-392): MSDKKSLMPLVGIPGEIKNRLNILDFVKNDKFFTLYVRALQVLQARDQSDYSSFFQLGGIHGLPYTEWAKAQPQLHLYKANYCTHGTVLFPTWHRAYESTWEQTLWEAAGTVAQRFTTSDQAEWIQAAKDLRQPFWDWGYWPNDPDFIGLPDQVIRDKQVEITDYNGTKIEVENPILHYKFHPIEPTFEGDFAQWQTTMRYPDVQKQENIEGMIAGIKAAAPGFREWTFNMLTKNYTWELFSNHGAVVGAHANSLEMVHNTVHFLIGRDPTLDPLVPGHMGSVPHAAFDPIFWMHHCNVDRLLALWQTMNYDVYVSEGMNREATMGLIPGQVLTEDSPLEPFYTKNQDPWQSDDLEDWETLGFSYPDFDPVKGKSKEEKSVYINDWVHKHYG

As to `O=C1N=C(Nc2cccc3ccccc23)S/C1=C\c1ccc(O)c(O)c1` [Compound 8, (Z)-5-(3,4-Dihydroxybenzylidene)-2-(naphthalen-1-ylamino)thiazol-4(5H)-one], the “ABTS+ scavenging” value in [1] turned out to be 99%. This compound also returned a DPPH radical scavenging in series [2] of 77%. Besides, in [3], the ROS-scavenging activity result was “very strong ROS-scavenging capacity, which was more potent than that of Trolox”.
For `O=C1N=C(Nc2cccc3ccccc23)S/C1=C\c1ccc(O)c(Br)c1` [Compound 15, (Z)-5-(3-Bromo-4-hydroxybenzylidene)-2-(naphthalen-1-ylamino)thiazol-4(5H)-one], the “tyrosinase activity of zebrafish larvae compared with kojic acid” value in series [4] (0.3 mM vs kojic acid 20 mM) was “comparable to that of kojic acid, even at a concentration 70 times lower”. Besides, the “tyrosinase activity of zebrafish larvae” value in series [4] (0.1 and 0.3 mM) was “decreased tyrosinase activity in a concentration-dependent manner”. For the same compound, in the series on zebrafish larvae (0.1 mM vs kojic acid 20 mM), the “depigmentation capacity in zebrafish larvae” value is listed as “depigmentation capacity similar to that of kojic acid, even at a concentration 200 times lower”. Further, the Ki on mushroom tyrosinase (Dixon plots, substrate L-DOPA) was determined as 4.87 µM. For the same compound, the inhibition mechanism result at mushroom tyrosinase (Lineweaver–Burk plots, L-DOPA 1–16 mM) is listed as “compete with the substrates for binding to the active site of tyrosinase”. Also, the “cytotoxicity in B16F10 cells” value in the series on B16F10 cells [5] (1 μM) is listed as “significant cytotoxicity was observed”. Besides, in the series with B16F10 cells [5] (1, 2, 5, 10 and 20 μM), the B16F10 cell viability entry is “clearly reduced cell viability in a concentration-dependent manner”.
For `O=c1cc(CO)occ1O` [Kojic acid, reference compound], in the series on B16F10 cells [6], the “in situ melanin formation (L-DOPA staining)” value is given as “melanin production was suppressed compared with that in the group treated with only stimulators”. In addition, in [7], the cellular tyrosinase activity was 3.3 fold. Moreover, the “tyrosinase activity of zebrafish larvae” value in [4] (20 mM) is “significantly reduced tyrosinase activity”. Also, in the series with zebrafish larvae, the “pigmentation of zebrafish larvae” value is listed as “pigmentation of zebrafish larvae was reduced”. Further, the stimulator-induced melanin content with B16F10 cells [8] was 3.4 fold.
With `Cc1c(C)c2c(c(C)c1O)CCC(C)(C(=O)O)O2` (centres unmarked) [Trolox, reference compound], the “ABTS+ scavenging” value in series [1] is 99%. Further, the ROS-scavenging activity entry in [3] was “strong ROS-scavenging activity”.

By Ki is commonly meant the equilibrium dissociation constant of an inhibitor or competing ligand from its target.

Source of the values: paper PMC11767423, “Design, Synthesis, and Antioxidant and Anti-Tyrosinase Activities of (Z)-5-Benzylidene-2-(naphthalen-1-ylamino)thiazol-4(5H)-one Analogs: In Vitro and In Vivo Insights” (Molecules, 2025).
